Here are results for 4 molecules from patent publication US11896644B2, “Inhibition of beta-arrestin oligomerization in tauopathy” (UNIVERSITY OF SOUTH FLORIDA, priority 2020, dated 2024).

The target in assay [1] is T1, GFP-βarrestin2/Flag-βarrestin2 complexes (βarrestin2 self-interaction) (Rattus norvegicus, UniProt P29067).
T1 construct: expressed in transfected cells; host or cells: Hela-V5-tau cells
Nature of the assay: Co-immunoprecipitation (co-IP) for GFP-βarrestin2/Flag-βarrestin2 complexes. As to conditions: 20 μM, 6 hours, Hela-V5-tau cells. It counts as cell-based. How it is done:
(§1) Brain homogenates and cultured cells were lysed with RIPA buffer (50 mM Tris pH 7.4, 150 mM NaCl, 2 mM ethlenediaminetetraacetic acid, 1% NP-40, 0.1% sodium dodecyl sulfate) plus protease and phosphatase inhibitors. Proteins were extracted and centrifuged at 15000 rpm for 15 min at 4° C., and RIPA insoluble fractions were lysed with 5% SDS with 1% β-mercaptoethanol, 50 mM Tris-HCl pH 6.8, 12.5 mM EDTA, 10% glycerol, and 0.02% bromophenol blue. Supernatants were used for western blot analysis. […]. co-IP experiments were carried out from NP40 lysates or indicated buffers with preclearing with IgG beads followed by IP with IgG beads alone or IgG beads+indicated antibodies, extensive washing (5×) with the original buffer, and Western blotting on SDS-PAGE. Sarkosyl extraction was performed as previously described (Hasegawa M, et al. (2007) Brain 130(Pt 5):1386-1394). Briefly, brain homogenates were lysed with A68 buffer containing 10 mM Tris-HCl, pH 7.4, 0.8M NaCl, 10% Sucrose, 1 mM EGTA). Samples were centrifuged at 400 g for 20 min at 4° C., and 1% sarkosyl was added to the collected supernatants. The samples were incubated for 1.5 h and centrifuged at 80,000 g for 30 min at room temperature. The pellets were resuspended in 100 ul of 50 mM Tris-HCl, pH 7.4.
FIGS. 28A and 28B show compounds C2 and C2 inhibit β-arrestin2 oligomerization. […]

In assay [2] the test system is HT7 (total human tau) in Tau-P301S hippocampal primary neurons. The assay is described as follows: HT7 staining of DIV21 hippocampal primary neurons from Tau-P301S mice treated with compounds. As to conditions: 20 μM, 6 hours. It counts as cell-based. As to the method: Primary mouse hippocampal and cortical neuronal cultures were previously described (Woo J A, et al. (2019) Commun Biol 2:112; Woo J A, et al. (2017) Hum Mol Genet 26(20):3973-3988; Woo J A, et al. (2015) Cell Death Differ 22(6):1069-1070). Briefly, primary neurons were prepared from P0 mice. Both hippocampus and cortex were dissected separately in HBSS and digested with trypsin. Neurons were plated on glass coverslips coated with poly-D-lysine (Sigma-Aldrich, St Louis, MO, USA) and maintained in neurobasal medium with glutamax (Invitrogen, Carlsbad, CA, USA) and B27 supplement (Invitrogen, Carlsbad, CA, USA).
Cells were fixed with 4% paraformaldehyde for 15 min at room temperature and washed with 0.2% triton in TBS and blocked using 3% BSA with 0.1% triton x-100 for 1 hr, incubated with primary antibodies for overnight at 4° C. and fluorescently labeled secondary antibodies for 45 min at room temperature. […] Images were captured with the Olympus FV10i confocal microscope (Tokyo, Japan), and the immunoreactivities were quantified using the Image J software (National Institutes of Health, Bethesda, MD). Immunoreactivities were quantitated from every 12th serial section through an entire hippocampus. […] Regions of interest were chosen randomly, and investigators were blinded to experimental conditions during image acquisition and quantification. […]

The target of assay [3] is T2, GFP-βarrestin2/Flag-βarrestin2 complexes (β-arrestin2 oligomerization) (Rattus norvegicus, UniProt P29067).
T2 construct: expressed in transfected cells; host or cells: Hela-V5-tau cells
T2 sequence (P29067 whole entry, one chain of several): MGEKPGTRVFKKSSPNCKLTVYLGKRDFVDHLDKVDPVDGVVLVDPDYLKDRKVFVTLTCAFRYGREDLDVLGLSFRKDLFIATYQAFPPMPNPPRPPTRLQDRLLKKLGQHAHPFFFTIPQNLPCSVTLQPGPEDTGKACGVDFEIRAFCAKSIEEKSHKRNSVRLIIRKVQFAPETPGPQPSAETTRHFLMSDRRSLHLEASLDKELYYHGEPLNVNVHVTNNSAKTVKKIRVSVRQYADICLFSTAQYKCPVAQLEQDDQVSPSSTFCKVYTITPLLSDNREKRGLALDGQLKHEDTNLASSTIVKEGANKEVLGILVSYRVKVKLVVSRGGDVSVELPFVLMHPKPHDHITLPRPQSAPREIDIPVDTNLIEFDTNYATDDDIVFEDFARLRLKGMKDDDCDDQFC
The assay is described as follows: Proximity ligation assay (PLA) for GFP-βarrestin2/Flag-βarrestin2 complexes. Format: cell-based. As to conditions: 20 μM, 6 hours, Hela-V5-tau cells. How it is done:
The assay was performed using commercially available reagents (Duolink, Sigma-Aldrich, St Louis, MO), with transfection of Hela V5-tau cells with WT β-arrestin2-flag and β-arrestin2-myc, without and with the mutant β-arrestin2 ΔIP6C or β-arrestin2 ΔIP6N constructs. Cells were fixed with 4% paraformaldehyde for 15 min at room temperature and washed with 0.2% triton in TBS. After washing, cells were blocked with 0.2% Triton in 3% Normal goat serum for 1 hour at room temperature. After applying primary antibodies overnight at 4° C., cells were washed and incubated with the PLA probes at 37° C. (1 h), washed with buffer A, incubated with ligation solution at 37° C. (30 min), washed with washing buffer A, incubated with amplification solution at 37° C. (100 min), and washed with washing buffer B before mounting.
FIGS. 28A and 28B show compounds C2 and C2 inhibit β-arrestin2 oligomerization. Hela-V5-tau cells were transfected with GFP-βarrestin2 and Flag-βarrestin2 and treated with 20 μM of 01, C1, or C2 for 6 hours.

The test system of assay [4] is sarkosyl-insoluble tau in HeLa-V5-tau cells. The assay is described as follows: Sarkosyl soluble and insoluble fractionation of compound-treated HeLa-V5-tau cells. Format: cell-based. As to conditions: 20 μM, 6 hours. How it is done: as §1
FIGS. 27A and 27B show C1 and C2 compounds reduce pathogenic tau. […]

Assay [5] deals with total tau levels in HeLa-V5-tau cells. Nature of the assay: Total tau by western blotting in HeLa-V5-tau cells treated with compounds. It counts as cell-based. As to conditions: 10 μM, 6 hours. How it is done:
as §1
(n=4, one-way ANOVA, post hoc Dunnett's, **P<0.005, ***P<0.0005).

Assay [6] concerns the target T3, β-arrestin2 oligomerization (Rattus norvegicus, UniProt P29067).
T3 construct: expressed in transfected cells; host or cells: Hela-V5-tau cells
The assay is described as follows: FRET assay CFP-βarrestin2/YFP-βarrestin2 in Hela-V5-tau cells. It counts as cell-based. As to conditions: 20 μM, 30 min.

Assay [7] deals with phospho-tau. Nature of the assay: Phospho-tau in tauP301S cortical primary neurons treated with GPCR agonists. It counts as cell-based, mice. As to conditions: 10 μM. From the text:
FIGS. 20A to 20E show β-arrestin is required mGluR2 and β2AR mediated tau accumulation and phosphorylation. […] Representative blots are shown. […] Unpaired t-test. All data are presented as mean±SEM. […] Representative blots are shown. […] Unpaired t-test. All data are presented as mean±SEM. […] Representative blots are shown.
Based on these prior observations, the goal was to confirm these findings in tauP301S transgenic primary neurons and Hela cells stably expressing tau (V5-tagged 4R0N tau, Hela-V5-tau cells).

Assay [8] deals with phospho-tau. Nature of the assay: Phospho-tau immunoblot in Hela-V5-tau cells transfected with siRNA and treated with GPCR agonists. As to conditions: for tau phosphorylation: 10 μM, control siRNA or β-arrestin2 siRNA experiment (FIGS. 13E,13F); for phospho-tau response in β-arrestin1 siRNA transfected cells: β-arrestin1 knockdown; for tau phosphorylation, control siRNA transfected cells: β-arrestin1 siRNA experiments (FIGS. 13A-13D). It counts as cell-based. How it is done:
FIGS. 13A to 13F show β-arrestin1 is required for mGluR2 and β2AR mediated increase in pathogenic tau. […] After transfection, cells were treated with either vehicle or 10 μM isoproterenol (Iso), lysed and immunoblotted for indicated proteins. Representative blots are shown. […] 1-way ANOVA with Dunnett's test. […] Representative blots are shown. […] 1-way ANOVA with Dunnett's test. […] 1-way ANOVA with Dunnett's test.
At present, it is not clear how different GPCRs, such as β2AR and mGluR2, and their agonists alter tau phosphorylation. One commonality of downstream signaling between these GPCRs is β-arrestin1 and β-arrestin2, which were initially identified and characterized based on its function to internalize and desensitize GPCRs, including β2AR (Lohse, M. J. et al. J Biol Chem (1992) 267:8558-8564) and mGluR2 (lacovelli, L. et al. Mol Pharmacol (2009) 75:991-1003). To test whether β-arrestin1 and/or β-arrestin2 is required for β2AR-mediated regulation of tau, Hela-V5-tau cells were transfected with control siRNA or β-arrestin1 siRNA and treated either vehicle or 10 μM Iso. […] Next, assessed was whether β-arrestin1 is required for mGluR2-mediated tau phosphorylation. […] Next, Hela-V5-tau cells were transfected with control siRNA or β-arrestin2 siRNA and treated vehicle, 10 μM Iso or LY-379,268.

Assay [9] relates to tau phosphorylation. As to conditions: cited from earlier work.
Assay [10] has as its system tau phosphorylation. As to conditions: cited from earlier work. This is another data set of the same source.

T1 sequence (P29067 whole entry, one chain of several): as above
T3 sequence (P29067 whole entry): as the sequence (P29067 whole entry, one chain of several) above

Take `O=C(CNC(=O)c1ccc2c(c1)CCC2)NCc1cn2ccccc2n1` [C1, 2-[(2,3-dihydro-1H-inden-5-yl)formamido]-N-({imidazo[1,2-a]pyridin-2-yl}methyl)acetamide]: the “βarrestin2 self-interaction by co-IP” value in assay [1] is “reduce βarrestin2 self-interaction to background levels”. For the same molecule, in assay [2], the “HT7 immunoreactivity (total human tau)” value was “significantly decreased”. In addition, the “βarrestin2 oligomerization by PLA” value in assay [3] is “significant reduction”. Besides, the sarkosyl-insoluble tau levels entry in [4] was “significantly decreased”. In [5], the total tau levels result is listed as “significantly decreased”.
For `Cc1ccc(NCCNC(=O)c2cc(-c3ccccc3)no2)nn1` [C2, N-{2-[(6-methylpyridazin-3-yl)amino]ethyl}-3-phenyl-1,2-oxazole-5-carboxamide], in assay [1], the “βarrestin2 self-interaction by co-IP” value is on record as “reduce βarrestin2 self-interaction to background levels”. Moreover, the “HT7 immunoreactivity (total human tau)” value in assay [2] is reported as “significantly decreased”. For the same molecule, in assay [3], the “βarrestin2 oligomerization by PLA” value is listed as “significant reduction”. The “CFP to YFP FRET signal” value in assay [6] is recorded as “reduces CFP to YFP FRET signal”. In assay [4], the sarkosyl-insoluble tau levels entry is on record as “significantly decreased”. Also, the total tau levels entry in assay [5] is reported as “significantly decreased”.
As to `CC(C)NCC(O)c1ccc(O)c(O)c1` (stereo not drawn) [Isoproterenol], in assay [7], the phospho-tau result is “significantly increased”. In assay [8], the tau phosphorylation result was “increased”; the “phospho-tau response in β-arrestin1 siRNA transfected cells” value was “failed to respond”; the “tau phosphorylation, control siRNA transfected cells” value is on record as “increased”. The “tau phosphorylation in rats” value in assay [9] is “markedly increases tau phosphorylation”.
For `N[C@@]1(C(=O)O)CO[C@H]2[C@H](C(=O)O)[C@H]21` [LY-379,268], in assay [7], the phospho-tau result is reported as “increased”. For the same molecule, the “tau phosphorylation via ERK activation” value in assay [10] is recorded as “increase tau phosphorylation”. Further, in assay [8], the tau phosphorylation entry is “increased”; the “phospho-tau response in β-arrestin1 siRNA transfected cells” value is reported as “failure to respond”; the “tau phosphorylation, control siRNA transfected cells” value is on record as “increased”.
